“And” between values parts separate entries of the source, which are not always exact repeats. Equal values may be shown once. Read-outs that look alike come from different tables or passages of the source.
How the values were obtained:
IRK (h) (InsR) = target: T1, IRK (h) (InsR) (Homo sapiens, UniProt P06213); test: SafetyScreen87 panel; assay type: biochemical
T1 construct: purchased Eurofins Discovery (Cerep, France)
Description: (§1) The possibility of KDS12025 on kinase off-target, the KINOMEscan panel of scanEDGE assay was conducted in DiscoverX (CA, USA) using a site-directed competition binding with the test compounds. The assay results are given in Supplementary Table 4 and experimental information is available on the DiscoverX web page (www.discoverx.com). Moreover, the Delta SafetyScreen87 panel assay was conducted in Eurofins Discovery (Cerep, France). The assay results are given in Supplementary Table 5 and experimental information is available on the DiscoverX web page (https://www.eurofinsdiscoveryservices.com).

ACE (h) = target: T2, ACE (h) (Homo sapiens, UniProt P12821); test: SafetyScreen87 panel; assay type: biochemical; conditions: 1.00E-06, read-out: % Inhibition of Control Specific Binding (1st, 2nd, Mean)
T2 construct: purchased Eurofins Discovery (Cerep, France)
T2 sequence (P12821 30-1306): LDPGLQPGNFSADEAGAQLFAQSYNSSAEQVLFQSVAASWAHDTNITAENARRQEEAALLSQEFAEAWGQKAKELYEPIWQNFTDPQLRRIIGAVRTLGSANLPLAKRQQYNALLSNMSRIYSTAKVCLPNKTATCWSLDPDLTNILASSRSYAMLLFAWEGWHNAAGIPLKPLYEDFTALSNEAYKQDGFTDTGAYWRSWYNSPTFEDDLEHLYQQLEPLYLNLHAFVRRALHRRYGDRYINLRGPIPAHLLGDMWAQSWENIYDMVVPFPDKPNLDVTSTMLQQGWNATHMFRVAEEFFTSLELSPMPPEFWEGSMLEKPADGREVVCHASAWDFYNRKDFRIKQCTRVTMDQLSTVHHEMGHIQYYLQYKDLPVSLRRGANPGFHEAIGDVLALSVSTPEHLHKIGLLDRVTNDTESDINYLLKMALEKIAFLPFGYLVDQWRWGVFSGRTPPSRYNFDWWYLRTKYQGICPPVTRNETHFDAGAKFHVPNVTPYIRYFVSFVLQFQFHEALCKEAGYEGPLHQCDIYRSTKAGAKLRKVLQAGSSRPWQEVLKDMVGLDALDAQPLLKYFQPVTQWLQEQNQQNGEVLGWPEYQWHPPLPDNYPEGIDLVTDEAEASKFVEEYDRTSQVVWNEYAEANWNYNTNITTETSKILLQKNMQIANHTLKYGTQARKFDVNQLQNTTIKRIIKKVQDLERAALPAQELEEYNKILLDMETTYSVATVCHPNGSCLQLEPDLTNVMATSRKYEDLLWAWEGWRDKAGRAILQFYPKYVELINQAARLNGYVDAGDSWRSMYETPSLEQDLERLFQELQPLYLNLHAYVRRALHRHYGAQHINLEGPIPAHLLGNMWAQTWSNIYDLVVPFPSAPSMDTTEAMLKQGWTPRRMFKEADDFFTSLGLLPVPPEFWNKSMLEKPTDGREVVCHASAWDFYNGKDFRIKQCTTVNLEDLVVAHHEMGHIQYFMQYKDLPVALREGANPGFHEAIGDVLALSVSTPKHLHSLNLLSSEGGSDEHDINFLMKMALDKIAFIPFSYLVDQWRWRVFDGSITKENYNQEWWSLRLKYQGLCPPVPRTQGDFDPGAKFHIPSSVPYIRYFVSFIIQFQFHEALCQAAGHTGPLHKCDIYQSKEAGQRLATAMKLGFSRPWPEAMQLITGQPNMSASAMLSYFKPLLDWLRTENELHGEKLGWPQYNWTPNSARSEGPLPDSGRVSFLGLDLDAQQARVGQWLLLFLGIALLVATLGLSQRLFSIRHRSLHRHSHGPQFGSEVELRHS
Description: as §1

PKCalpha (h) = target: T3, PKCalpha (h) (Homo sapiens, UniProt P17252); test: SafetyScreen87 panel; assay type: biochemical; conditions: 1.00E-06, read-out: % Inhibition of Control Specific Binding (1st, 2nd, Mean)
T3 construct: purchased Eurofins Discovery (Cerep, France)
Description: as §1

[1] = target: T4, MAO-B (h) recombinant enzyme (Homo sapiens, UniProt P27338); test: SafetyScreen87 panel; assay type: biochemical; conditions: 1.00E-06, read-out: % Inhibition of Control Specific Binding (1st, 2nd, Mean)
T4 construct: purchased Eurofins Discovery (Cerep, France)
Description: as §1

acetylcholinesterase (h) = target: T5, acetylcholinesterase (h) (Homo sapiens, UniProt P22303); test: SafetyScreen87 panel; assay type: biochemical; conditions: 1.00E-06, read-out: % Inhibition of Control Specific Binding (1st, 2nd, Mean)
T5 construct: purchased Eurofins Discovery (Cerep, France)
Description: as §1

PDE3A (h) = target: T6, PDE3A (h) (Homo sapiens, UniProt Q14432); test: SafetyScreen87 panel; assay type: biochemical
T6 construct: purchased Eurofins Discovery (Cerep, France)
T6 sequence (Q14432 whole entry): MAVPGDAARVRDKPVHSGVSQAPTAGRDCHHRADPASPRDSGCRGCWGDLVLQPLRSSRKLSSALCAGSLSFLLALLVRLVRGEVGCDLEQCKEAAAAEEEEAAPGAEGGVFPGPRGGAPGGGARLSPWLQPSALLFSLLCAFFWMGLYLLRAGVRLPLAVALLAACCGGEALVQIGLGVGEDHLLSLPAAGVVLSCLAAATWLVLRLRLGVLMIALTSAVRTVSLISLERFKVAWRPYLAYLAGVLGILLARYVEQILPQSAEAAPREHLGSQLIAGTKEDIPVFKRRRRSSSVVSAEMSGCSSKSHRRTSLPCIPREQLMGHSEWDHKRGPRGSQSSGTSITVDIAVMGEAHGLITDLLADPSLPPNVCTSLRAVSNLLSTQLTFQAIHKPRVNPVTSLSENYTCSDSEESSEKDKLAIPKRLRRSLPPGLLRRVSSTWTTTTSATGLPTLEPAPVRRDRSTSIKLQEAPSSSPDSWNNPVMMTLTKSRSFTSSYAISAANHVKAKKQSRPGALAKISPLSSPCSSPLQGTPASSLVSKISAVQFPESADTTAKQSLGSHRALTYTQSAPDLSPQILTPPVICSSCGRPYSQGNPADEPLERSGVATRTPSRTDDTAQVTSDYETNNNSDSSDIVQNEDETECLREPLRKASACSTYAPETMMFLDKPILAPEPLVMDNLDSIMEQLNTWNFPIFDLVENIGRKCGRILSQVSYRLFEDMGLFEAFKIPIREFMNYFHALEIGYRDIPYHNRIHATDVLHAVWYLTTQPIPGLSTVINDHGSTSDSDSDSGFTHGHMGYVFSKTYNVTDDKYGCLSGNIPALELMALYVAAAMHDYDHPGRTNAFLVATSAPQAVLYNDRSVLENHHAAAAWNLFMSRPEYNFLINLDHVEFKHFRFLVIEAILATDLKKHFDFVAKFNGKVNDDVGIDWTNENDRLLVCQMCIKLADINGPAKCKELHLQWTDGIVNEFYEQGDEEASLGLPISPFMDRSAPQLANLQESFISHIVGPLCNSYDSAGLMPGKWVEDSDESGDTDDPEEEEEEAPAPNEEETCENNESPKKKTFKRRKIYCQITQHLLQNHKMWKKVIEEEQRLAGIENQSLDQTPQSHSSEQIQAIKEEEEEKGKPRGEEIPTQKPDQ
Description: as §1

Lck kinase (h) = target: T7, Lck kinase (h) (Homo sapiens, UniProt P06239); test: SafetyScreen87 panel; assay type: biochemical; conditions: 1.00E-06, read-out: % Inhibition of Control Specific Binding (1st, 2nd, Mean)
T7 construct: purchased Eurofins Discovery (Cerep, France)
T7 sequence (P06239 whole entry): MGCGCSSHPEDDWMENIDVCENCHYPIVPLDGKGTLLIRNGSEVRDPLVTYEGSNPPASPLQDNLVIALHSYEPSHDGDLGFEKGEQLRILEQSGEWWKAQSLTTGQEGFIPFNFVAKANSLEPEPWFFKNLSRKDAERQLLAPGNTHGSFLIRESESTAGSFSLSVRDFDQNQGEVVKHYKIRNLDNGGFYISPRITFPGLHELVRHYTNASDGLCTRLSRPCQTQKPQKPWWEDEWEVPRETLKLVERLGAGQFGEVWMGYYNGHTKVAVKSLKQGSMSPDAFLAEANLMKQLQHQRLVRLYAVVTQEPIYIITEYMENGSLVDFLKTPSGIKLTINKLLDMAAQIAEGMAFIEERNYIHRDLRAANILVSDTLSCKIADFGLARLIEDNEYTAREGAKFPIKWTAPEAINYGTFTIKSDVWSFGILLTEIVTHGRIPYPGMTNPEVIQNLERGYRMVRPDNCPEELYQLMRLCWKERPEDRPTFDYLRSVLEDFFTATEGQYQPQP
Description: as §1

ATPase (Na+/K+) = test: SafetyScreen87 panel; assay type: biochemical; conditions: 1.00E-06; read-out: % Inhibition of Control Specific Binding (1st, 2nd, Mean)
Description: as §1

cathepsin G (h) = target: T8, cathepsin G (h) (Homo sapiens, UniProt P08311); test: SafetyScreen87 panel; assay type: biochemical; conditions: 1.00E-06, read-out: % Inhibition of Control Specific Binding (1st, 2nd, Mean)
T8 construct: purchased Eurofins Discovery (Cerep, France)
T8 sequence (P08311 21-255): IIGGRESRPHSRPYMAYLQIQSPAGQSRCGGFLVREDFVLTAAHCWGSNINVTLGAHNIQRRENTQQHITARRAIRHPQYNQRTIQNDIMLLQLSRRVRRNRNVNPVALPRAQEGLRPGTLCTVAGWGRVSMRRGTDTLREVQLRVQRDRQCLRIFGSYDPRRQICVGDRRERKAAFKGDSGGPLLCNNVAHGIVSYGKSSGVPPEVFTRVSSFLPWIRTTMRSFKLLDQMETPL
Description: as §1

COX2(h) = target: T9, COX2(h) (Homo sapiens, UniProt P35354); test: SafetyScreen87 panel; assay type: biochemical; conditions: 1.00E-06, read-out: % Inhibition of Control Specific Binding (1st, 2nd, Mean)
T9 construct: purchased Eurofins Discovery (Cerep, France)
T9 sequence (P35354 18-604): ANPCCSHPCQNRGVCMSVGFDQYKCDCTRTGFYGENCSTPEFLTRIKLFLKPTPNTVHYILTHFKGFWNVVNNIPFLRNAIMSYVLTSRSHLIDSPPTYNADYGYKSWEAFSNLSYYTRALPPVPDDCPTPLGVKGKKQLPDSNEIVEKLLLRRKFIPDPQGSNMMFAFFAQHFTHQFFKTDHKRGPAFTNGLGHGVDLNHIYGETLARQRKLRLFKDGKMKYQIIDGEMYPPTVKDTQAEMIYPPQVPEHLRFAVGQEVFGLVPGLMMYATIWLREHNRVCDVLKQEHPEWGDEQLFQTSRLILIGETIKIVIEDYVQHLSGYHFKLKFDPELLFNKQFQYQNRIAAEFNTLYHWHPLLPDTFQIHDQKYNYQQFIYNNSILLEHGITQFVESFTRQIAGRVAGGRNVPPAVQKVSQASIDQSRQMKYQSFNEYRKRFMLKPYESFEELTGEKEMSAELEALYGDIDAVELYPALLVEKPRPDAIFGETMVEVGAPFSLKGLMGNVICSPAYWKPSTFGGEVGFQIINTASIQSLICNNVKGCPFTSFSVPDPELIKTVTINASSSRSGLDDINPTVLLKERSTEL
Description: as §1

COX1(h) = target: T10, COX1(h) (Homo sapiens, UniProt P23219); test: SafetyScreen87 panel; assay type: biochemical; conditions: 1.00E-06, read-out: % Inhibition of Control Specific Binding (1st, 2nd, Mean)
T10 construct: Eurofins Discovery (Cerep, France) SafetyScreen87 panel
Description: as §1

PDE4D2 (h) = target: T11, PDE4D2 (h) (Homo sapiens, UniProt Q08499); test: SafetyScreen87 panel; assay type: biochemical
T11 construct: purchased Eurofins Discovery (Cerep, France)
T11 sequence (Q08499 303-809 limits assumed): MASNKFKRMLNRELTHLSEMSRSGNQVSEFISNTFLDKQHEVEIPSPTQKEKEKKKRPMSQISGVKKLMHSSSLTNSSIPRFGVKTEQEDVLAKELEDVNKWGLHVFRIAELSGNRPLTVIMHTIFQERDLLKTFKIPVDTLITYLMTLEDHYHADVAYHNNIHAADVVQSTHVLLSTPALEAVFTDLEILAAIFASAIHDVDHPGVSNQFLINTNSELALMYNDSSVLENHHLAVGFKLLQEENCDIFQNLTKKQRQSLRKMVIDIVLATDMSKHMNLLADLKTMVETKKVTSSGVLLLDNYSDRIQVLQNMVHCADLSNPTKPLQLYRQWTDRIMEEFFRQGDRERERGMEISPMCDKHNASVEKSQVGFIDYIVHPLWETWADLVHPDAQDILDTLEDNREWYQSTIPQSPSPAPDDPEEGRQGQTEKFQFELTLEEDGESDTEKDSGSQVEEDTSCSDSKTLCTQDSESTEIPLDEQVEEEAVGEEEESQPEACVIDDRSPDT
Description: as §1

A53T mice = test: Rotarod test, A53T PD mouse model; assay type: in vivo
Description: Stereotaxic injections were performed to deliver the AAV-CMV-A53T virus or PBS (control) into the right SNpc (AP, −3.2 mm; ML, −1.3 mm; DV, −4.0 mm from the bregma) of the mice. The injections were administered at a rate of 0.2 μl/min, with a total volume of 1 μl. The procedure was conducted under general anesthesia induced by 1% isoflurane.
The mice were habituated to the rotarod at speeds of 5, 10, and 15 rpm. Motor coordination and endurance were tested at 20 rpm for a maximum of 3 min. The latency to fall was recorded during the test to evaluate motor deficits associated with PD and the therapeutic effects of KDS12025.

purified human Hb = target: T12, purified human Hb (Homo sapiens, UniProt P68871); test: ITC binding affinity assay; conditions: Hb+KDS12025, without H2O2
T12 construct: purchased MP Biomedical 55914
Description: All ITC experiments were conducted via a MicroCal AutoiTC200 (Malvern Panalytical) at the Korea Basic Science Institute (Ochang, Korea). Binding affinity was measured via the addition of 40 µl of 5 mM KDS12025 (ligand) and 200 µl of 200 μM purified human Hb (protein) (MP Biomedical, 55914) in sodium phosphate buffer (pH 7.2). For each titration experiment, 2 µl of KDS12025 was injected into purified human Hb for 4 s at intervals of 180 s at 25 °C. Overall, 19 injections were performed for each experiment, and the data were analyzed via MicroCal Origin 8.0 software.

CIA DBA1 mice = test: CIA mouse model of rheumatoid arthritis; assay type: in vivo; set-up: matrix, toluidine blue (Fig. S20m) / surface regularity, toluidine blue (Fig. S20n) / CIA score at day 42 (Fig. S20c) / area under the curve (AUC) of symptom severity (Fig. S20e): scale not given here; cartilage thickness, toluidine blue (Fig. S20o): unit not given here
Description: CIA was induced in DBA1 mice by intradermal injection of type II collagen emulsified in Complete Freund's Adjuvant (CFA) on day 0, followed by a booster injection of type II collagen in Incomplete Freund's Adjuvant (IFA) on day 21. Starting from day 23, mice were administered KDS12025 in drinking ad libitum at doses of 0, 0.1, or 1 mg/kg/day until day 42. To assess joint inflammation and cartilage thickness in CIA mice, joint samples were collected and fixed in 10% formalin. The samples were then decalcified, embedded in paraffin, and sectioned. For histological evaluation, sections were stained with H&E to assess inflammation and with Toluidine Blue to evaluate cartilage thickness. The stained sections were examined under a light microscope, and images were captured for quantitative analysis of inflammatory cell infiltration and cartilage integrity.

[2] = 1.00E-06; read-out: % Inhibition of Control Specific Binding (1st, 2nd, Mean)
[3] = read-out: % Inhibition of Control Specific Binding (1st, 2nd, Mean); 1.00E-06

CNc1ccc(NCCc2ccccc2OC)cc1.Cl [KDS12025, N^1-(2-methoxyphenethyl)-N^4-methylbenzene-1,4-diamine hydrochloride salt]
activity (IRK (h) (InsR); [2]): 109%
activity (IRK (h) (InsR); [3]): 100%
activity (ACE (h); mean): 100%
activity (ACE (h)): 101% and 99.4%
activity (PKCalpha (h); mean): 104%
activity (PKCalpha (h)): 105% and 103%
activity ([1]; mean): 119%
activity [1]: 116% and 121%
activity (acetylcholinesterase (h); mean): 91.7%
activity (acetylcholinesterase (h)): 92.6% and 90.8%
activity (PDE3A (h); [2]): 89.8%
activity (PDE3A (h); [3]): 87.1% and 92.4%
activity (Lck kinase (h); mean): 94.1%
activity (Lck kinase (h)): 95.9% and 92.2%
activity (ATPase (Na+/K+)): 97.8%
activity (cathepsin G (h); mean): 100%
activity (cathepsin G (h)): 97.2% and 103%
activity (COX2(h); mean): 43.8%
activity (COX2(h)): 42.2% and 45.3%
activity (COX1(h); mean): 59.3%
activity (COX1(h)): 62.5% and 56.1%
activity (PDE4D2 (h); [2]): 95.3% and 102%
activity (PDE4D2 (h); [3]): 98.7%
rotarod latency to fall (A53T mice; A53T+KDS12025 1 mg/kg/day ad libitum, Fig. 4h): Control (225.3±30.6, n=6), A53T (93.8±19.6, n=7), A53T+KDS12025 (223.8±23.5, n=8) One-way ANOVA with Tukey's multiple comparisons test, F(2,18) = 9.52, p = 0.002 Control vs. A53T, p = 0.005; Control vs. A53T+KDS12025, p > 0.99; A53T vs. A53T+KDS12025, p = 0.003
rotarod latency to fall (A53T mice; A53T+shHbβ::CaMKII+KDS12025, Fig. 6q): 139.0±51.1
rotarod latency to fall (A53T mice; A53T+shHbβ::GFAP+KDS12025, Fig. 6q): 117.0±63.6
ΔG (ITC) (purified human Hb): -7.53 kcal/mol
ΔH (ITC) (purified human Hb): -580 kcal/mol
CIA score at day 42 (Fig. S20c) (CIA DBA1 mice; 0.1 MPK): 9.5±1.133
area under the curve (AUC) of symptom severity (Fig. S20e) (CIA DBA1 mice; 0.1 MPK): 54.17±15.02
body weight difference (Fig. S20p) (CIA DBA1 mice; 0.1 MPK): 93±0.5%
bone erosion, H&E (Fig. S20k) (CIA DBA1 mice; 0.1 MPK): 0.852±0.3905
cartilage destruction, H&E (Fig. S20i) (CIA DBA1 mice; 0.1 MPK): 1.5±0.2949
cartilage thickness, toluidine blue (Fig. S20o) (CIA DBA1 mice; 0.1 MPK): 0.85±0.2018
matrix, toluidine blue (Fig. S20m) (CIA DBA1 mice; 0.1 MPK): 1.504±0.3303
pannus formation, H&E (Fig. S20j) (CIA DBA1 mice; 0.1 MPK): 0.9±0.3929
paw volume (Fig. S20f) (CIA DBA1 mice; 0.1 MPK): 0.1383 ± 0.0074 mL
surface regularity, toluidine blue (Fig. S20n) (CIA DBA1 mice; 0.1 MPK): 1.352±0.3083
synovial hyperplasia, H&E (Fig. S20h) (CIA DBA1 mice; 0.1 MPK): 1.338±0.2985
CIA score at day 42 (Fig. S20c) (CIA DBA1 mice; 1 MPK): 6.583±0.7002
area under the curve (AUC) of symptom severity (Fig. S20e) (CIA DBA1 mice; 1 MPK): 25.0±9.129
body weight difference (Fig. S20p) (CIA DBA1 mice; 1 MPK): 100.7±0.4%
bone erosion, H&E (Fig. S20k) (CIA DBA1 mice; 1 MPK): 0.338±0.2928
cartilage destruction, H&E (Fig. S20i) (CIA DBA1 mice; 1 MPK): 0.966±0.2183
cartilage thickness, toluidine blue (Fig. S20o) (CIA DBA1 mice; 1 MPK): 0.652±0.1825
matrix, toluidine blue (Fig. S20m) (CIA DBA1 mice; 1 MPK): 0.988±0.2547
pannus formation, H&E (Fig. S20j) (CIA DBA1 mice; 1 MPK): 0.338±0.2928
paw volume (Fig. S20f) (CIA DBA1 mice; 1 MPK): 0.1183 ± 0.0047 mL
surface regularity, toluidine blue (Fig. S20n) (CIA DBA1 mice; 1 MPK): 0.95±0.2009
synovial hyperplasia, H&E (Fig. S20h) (CIA DBA1 mice; 1 MPK): 0.7620±0.3263

Source: article PMC12373846, “Hemoglobin as a pseudoperoxidase and drug target for oxidative stress-related diseases” (Signal Transduction and Targeted Therapy, 2025)
